What all share (test): inhibition of tumour cell growth, NCI panel, 48 h
Assay [1] deals with A498 renal.
In assay [2] the test system is A549 NSCLC.
Assay [3] concerns SK-MEL-5 melanoma.
Assay [4] relates to NCI-H23 lung.
The test system of assay [5] is MDA-MB-435.
Assay [6] concerns MALME-3M melanoma.
For assay [7], the system named is SNB-75 CNS.
Assay [8] relates to K-562 leukemia.
Assay [9] relates to HOP-92 NSCLC.
The test system of assay [10] is HS 578T breast.

Each structure is given as a SMILES string. Several values for one entry are separate records, joined by “and”; a condition that tells them apart may be missing. Identical values can stand only once.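 Values below derive from 48-hour exposures of cells grown in 96-well plates, with endpoints linearly interpolated between the two concentrations bracketing the appropriate inhibition level. GI50 is the concentration that inhibits growth by half. At the TGI there is no net growth.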

Take `[Br][Pb]([c]1ccccc1)([c]1ccccc1)[c]1ccccc1`: the GI50 in assay [1] was 0.177 µM; in assay [2] it was 0.356 µM; in assay [3], 0.164 µM; in [4] it was 0.174 µM; in [5], 0.19 µM; in assay [6] it was 0.183 µM. Further, the figures for the GI50 in [7] and in assay [8] were 0.0993 µM and 0.139 µM, respectively. For the same molecule, the TGI is 0.4 µM in assay [1]; 1.29 µM in assay [2]; 0.312 µM in assay [3]; 0.418 µM in [4]; 0.435 µM in assay [5]; 0.39 µM in assay [6]. In [7], this molecule gave a TGI of 0.389 µM.
On to `COC(=O)[C@@]12OC[C@]34[C@H]([C@@H](O)[C@@H]1O)[C@@]1(C)CC(=O)C(O)=C(C)[C@@H]1C[C@H]3OC(=O)[C@H](OC(=O)/C=C(\C)C(C)C)[C@@H]24`, for which the GI50 is 0.00487 µM in assay [1] and 0.02 µM in assay [10]. For the same molecule, the TGI in [1] is 0.0109 µM and 0.022 µM; in assay [9], 0.0378 µM and 0.0921 µM; in [2] it was 0.0168 µM and < 0.0163 µM and 0.0473 µM; in [3] it was 0.00333 µM and 0.0278 µM; in [4] it was 0.015 µM and 0.0688 µM; in assay [5] it was 0.0415 µM and 0.0128 µM. For the same molecule, the TGI was 0.00498 µM and 0.0263 µM in assay [6]; 0.0186 µM and 0.0203 µM in assay [7]; 0.0209 µM and 0.0273 µM in assay [10].
For the molecule `CC1NOC(=O)C1N=Nc1cccc(Cl)c1` (centres undefined), the TGI in assay [1] was 52.5 µM; in [9], > 100 µM; in assay [2], > 100 µM; in assay [3] it was > 100 µM; in assay [4], > 100 µM; in assay [6], > 100 µM. Further, the TGI in assay [7] is 92.2 µM; in assay [8], > 100 µM.
For `O=C(N/C(=C\c1ccc([N+](=O)[O-])cc1)c1nc2ccccc2s1)c1ccccc1`, the TGI in assay [1] is > 100 µM; in assay [9], 68.8 µM; in assay [2], > 100 µM; in assay [3], 63.5 µM; in assay [4] it was 61.7 µM; in assay [6], > 100 µM. Besides, the TGI in assay [7] was determined as 63.5 µM; in [8], 59.2 µM.
Consider `COc1cc(C2CC(c3ccccc3)=NN2C=O)ccc1Oc1ccnc2cc(Cl)ccc12` (centres undefined), for which the GI50 is 6.9 µM in assay [1]; 1.5 µM in assay [9]; 8.87 µM in assay [2]; 4.82 µM in [4]; 3.31 µM in assay [7]; 5.6 µM in assay [10]. In addition, the TGI was > 100 µM in assay [1]; 13.6 µM in assay [9]; > 100 µM in [2]; > 100 µM in [4]; 21 µM in assay [7]; > 100 µM in [10].
Turning to `O=S(=O)(c1ccccc1)N1CCCC(c2ccccc2)CC1` (centres undefined), the TGI in assay [1] is > 100 µM; in assay [9], > 100 µM; in [2] it was > 100 µM; in [3], 28.9 µM; in assay [4], > 100 µM; in [5] it was > 100 µM. Moreover, the TGI in [6] is > 100 µM; in assay [7] it was 94.6 µM; in assay [8], > 100 µM.
`O=C1C(Cl)=C(Nc2ccc(S(=O)(=O)c3ccc(NC4=C(Cl)C(=O)c5ccccc5C4=O)cc3)cc2)C(=O)c2ccccc21`: the GI50 in assay [1] was 3.72 µM; in [9] it was 1.96 µM; in assay [2], 5.71 µM; in assay [3] it was 1.71 µM; in assay [4], 1.81 µM; in assay [6] it was 2.13 µM. The GI50 in assay [7] was 1.04 µM; in assay [8], 1.63 µM; in assay [10], 1.82 µM. In addition, the TGI in assay [1] came out at 16.2 µM; in assay [9], 3.44 µM; in [2], 38.8 µM; in assay [3], 3.49 µM; in [4] it was 3.63 µM; in assay [6] it was 3.88 µM. For the same molecule, the values for the TGI in [7], in assay [8] and in [10] were 2.33 µM, 5.24 µM and 5.85 µM, respectively.
Regarding `CCCCCCCCCCCC/C=C\CC[C@@H](O)[C@H](O)CC[C@H](O)[C@@H]1CC[C@@H](CCCCCCCC2=C[C@H](C)OC2=O)O1`, the GI50 in assay [1] was 16.4 µM; in [9], 17.4 µM; in [2], 3.36 µM; in [3], 0.0198 µM; in assay [4] it was 2.19 µM; in [5], 11.4 µM. The GI50 in assay [7] was 12.8 µM. The TGI in assay [1] is 36.6 µM; in assay [9] it was 8.69 µM and 55.2 µM; in assay [2] it was 23 µM; in assay [3] it was 4.11 µM and 4.85 µM; in assay [4] it was 29.9 µM; in assay [6], 31.2 µM. The values for the TGI in assay [7] and in [8] were 29.1 µM and 30 µM, respectively.
Turning to `Cc1ccc(NCCNCC(C)(C)O)c2c(=O)c3ccc(Cl)cc3sc12`, the GI50 in assay [1] was 1.63 µM; in [9], 0.455 µM; in [2] it was 1.64 µM; in assay [3] it was 1.58 µM; in [4] it was 1.53 µM; in assay [5], 1.74 µM. Further, the GI50 in assay [6] was 1.59 µM; in assay [7] it was 1.34 µM; in [10], 1.59 µM. For the same molecule, the TGI in [1] came out at 3.09 µM; in [9], 1.92 µM; in assay [2] it was 3.09 µM; in [3] it was 2.95 µM; in assay [4] it was 3.03 µM; in [5] it was 3.27 µM. The results for the TGI in assay [6], in assay [7] and in [10] were 3.23 µM, 2.85 µM and 3.84 µM, respectively.
Regarding `CC(=O)CCC1(c2ccccc2)OC(=O)C(C#N)=C1c1ccccc1` (centres undefined), the TGI in assay [1], in assay [9], in assay [2], in [3], in assay [4] and in assay [6] was > 100 µM throughout. Further, the TGI was 74.1 µM in assay [7] and > 100 µM in assay [8].
As to `COC1C(OC(=O)c2ccc(C)[nH]2)C(O)C(Oc2ccc3c(O)c(NC(=O)c4ccc(O)c(CC=C(C)C)c4)c(=O)oc3c2Cl)OC1(C)C` (centres undefined), the TGI in assay [1] is 33 µM; in [2], 91.7 µM; in assay [3] it was 35.6 µM; in assay [4], 45.5 µM; in assay [5], > 100 µM; in [6], 34 µM. The TGI in assay [7] is 72.9 µM; in assay [8], > 100 µM; in assay [10] it was 61.9 µM.
With `Cc1c(Cl)ccc2c1NC(=O)C2(O)CC(=O)c1ccc(Cl)cc1` (centres undefined), the TGI in assay [1] was > 64.1 µM; in assay [9] it was > 100 µM; in assay [2], > 100 µM; in assay [3] it was > 100 µM; in [4], > 100 µM; in assay [6] it was > 54.4 µM. Besides, the TGI in assay [7] was > 100 µM; in assay [8], > 64.8 µM.

The record behind these values is PubChem BioAssay (NCI).
